# Laboratory results published in PubChem BioAssay AID304 (DTP/NCI, 2004).
# Where “and” joins values, the source holds several entries; their conditions need not be identical. Identical values can stand only once. Inconclusive results and toxic doses are left out.
# Test system: Lymphosarcoma Mecca ip in C3AKF1 mice, survival T/C%
# Assay: NCI In Vivo Anticancer Drug Screen. Data for tumor model Lymphosarcoma Mecca (intraperitoneal) in C3AKF1 (CHKRF1) mice
# Conditions: endpoint: survival time, mean or median, schedule: Q01DX010 (ip), higher = longer survival
# Method: The antitumor activity of compounds was measured in mice bearing transplantable tumors. Survival or tumor size were measured and the results are expressed as the measurement made in the treated group (T) divided by the measurement made in the vehicle treated control group (C). The tumor model used in this assay is Lymphosarcoma Mecca (intraperitoneal) in C3AKF1 (CHKRF1) mice
# [1] = dose: 0.5 mg/kg/injection, vehicle: saline
# [2] = dose: 1.0 mg/kg/injection, vehicle: saline
# [3] = dose: 4.0 mg/kg/injection, vehicle: saline
# [4] = dose: 6.0 mg/kg/injection, vehicle: saline
# [5] = dose: 8.0 mg/kg/injection, vehicle: saline
# [6] = dose: 12.0 mg/kg/injection, vehicle: saline
# [7] = dose: 12.5 mg/kg/injection, vehicle: saline
# [8] = dose: 25.0 mg/kg/injection, vehicle: saline
# [9] = dose: 100.0 mg/kg/injection, vehicle: saline
# [10] = dose: 2.0 mg/kg/injection, vehicle: saline
# [11] = dose: 20.0 mg/kg/injection, vehicle: saline
# [12] = dose: 50.0 mg/kg/injection, vehicle: saline
# [13] = dose: 200.0 mg/kg/injection, vehicle: saline
# [14] = dose: 62.5 mg/kg/injection, vehicle: saline
# [15] = dose: 125.0 mg/kg/injection, vehicle: saline
# [16] = dose: 250.0 mg/kg/injection, vehicle: saline
smiles,measurement,setting,value
NC(=O)N(CCCl)N=O,T/C,[1],300 % of control
same,T/C,[2],158 % of control and 230 % of control
same,T/C,[3],110 % of control
O=C(Nc1ccc(C2=NCCN2)cc1)c1ccc(C(=O)Nc2ccc(C3=NCCN3)cc2)c([N+](=O)[O-])c1,T/C,[4],116 % of control
same,T/C,[5],116 % of control
same,T/C,[6],116 % of control
Nc1nc(N)c2nc(CNc3ccc(C(=O)NC(CCC(=O)O)C(=O)O)cc3)cnc2n1 (stereo unspecified),T/C,"dose: 0.1 mg/kg/injection, vehicle: other",162 % of control and 215 % of control
same,T/C,"dose: 0.2 mg/kg/injection, vehicle: other",155 % of control and 190 % of control
CS(=O)(=O)OCCCl,T/C,"dose: 18.8 mg/kg/injection, vehicle: saline",100 % of control
same,T/C,"dose: 37.5 mg/kg/injection, vehicle: saline",113 % of control
same,T/C,"dose: 75.0 mg/kg/injection, vehicle: saline",100 % of control
CS(=O)(=O)OCCC(=O)N1CCN(C(=O)CCOS(C)(=O)=O)CC1,T/C,[7],120 % of control
same,T/C,[8],105 % of control and 110 % of control
same,T/C,[9],160 % of control
Nc1nc(F)nc2c1ncn2C1OC(CO)C(O)C1O (stereo unspecified),T/C,[1],100 % of control
same,T/C,[2],90 % of control and 105 % of control
same,T/C,[10],90 % of control and 100 % of control
same,T/C,[3],100 % of control
same,T/C,[5],100 % of control
O=C(O)c1[nH]c(=O)[nH]c(=O)c1F,T/C,"dose: 1.25 mg/kg/injection, vehicle: saline",100 % of control
same,T/C,"dose: 2.5 mg/kg/injection, vehicle: saline",88 % of control and 122 % of control
same,T/C,[11],122 % of control
Cc1cc2nc3c(=O)[nH]c(=O)nc-3n(CC(O)C(O)C(O)C(O)CO)c2cc1C (stereo unspecified),T/C,[8],95 % of control
same,T/C,[12],90 % of control and 95 % of control
same,T/C,[9],90 % of control and 100 % of control
same,T/C,[13],90 % of control and 100 % of control
COC1C(OC(=O)/C=C/C=C/C=C/C=C/C(=O)O)CCC2(CO2)C1C1(C)OC1CC=C(C)C (stereo unspecified),T/C,[8],100 % of control
same,T/C,[12],100 % of control and 110 % of control
same,T/C,[9],100 % of control and 104 % of control
same,T/C,[13],90 % of control
CC(CCC(C)OS(C)(=O)=O)OS(C)(=O)=O (stereo unspecified),T/C,[3],109 % of control
same,T/C,[5],100 % of control
same,T/C,"dose: 16.0 mg/kg/injection, vehicle: saline",114 % of control
same,T/C,"dose: 32.0 mg/kg/injection, vehicle: saline",95 % of control
C[C@H]1C(=O)O[C@@H]2CCN3CC=C(COC(=O)[C@](C)(O)[C@@]1(C)O)[C@H]23,T/C,"dose: 3.13 mg/kg/injection, vehicle: saline",109 % of control and 115 % of control
same,T/C,"dose: 6.25 mg/kg/injection, vehicle: saline",95 % of control and 109 % of control
same,T/C,[7],105 % of control and 118 % of control
same,T/C,[8],109 % of control and 115 % of control
Nc1ncnc2[nH]ncc12,T/C,"dose: 1.5 mg/kg/injection, vehicle: saline",105 % of control
same,T/C,"dose: 3.0 mg/kg/injection, vehicle: saline",111 % of control and 115 % of control
same,T/C,[4],95 % of control
same,T/C,[6],95 % of control
Cc1cn(C2OC(CO)C(O)C2O)c(=O)[nH]c1=O (stereo unspecified),T/C,[14],105 % of control
same,T/C,[15],111 % of control
same,T/C,[16],105 % of control
same,T/C,"dose: 500.0 mg/kg/injection, vehicle: saline",111 % of control
CCCSc1ncnc2nc[nH]c12,T/C,"dose: 31.3 mg/kg/injection, vehicle: saline",105 % of control and 111 % of control
same,T/C,[14],105 % of control and 111 % of control
same,T/C,[15],105 % of control
same,T/C,[16],88 % of control
CN(C)[C@@H]1C(=O)C(C(N)=O)=C(O)[C@@]2(O)C(=O)C3=C(O)c4c(O)cccc4C[C@H]3C[C@@H]12,T/C,"dose: 3.75 mg/kg/injection, vehicle: saline",100 % of control
same,T/C,"dose: 7.5 mg/kg/injection, vehicle: saline",100 % of control
same,T/C,"dose: 15.0 mg/kg/injection, vehicle: saline",100 % of control
same,T/C,"dose: 30.0 mg/kg/injection, vehicle: saline",90 % of control and 94 % of control
S=P(N1CC1)(N1CC1)N1CC1,T/C,[2],270 % of control
same,T/C,[10],90 % of control
same,T/C,[3],109 % of control
O=c1[nH]c(=O)n(C2CC(O)C(CO)O2)cc1F (stereo unspecified),T/C,"dose: 5.0 mg/kg/injection, vehicle: saline",100 % of control
same,T/C,"dose: 10.0 mg/kg/injection, vehicle: saline",109 % of control and 115 % of control
same,T/C,[11],113 % of control and 120 % of control
same,T/C,"dose: 80.0 mg/kg/injection, vehicle: saline",159 % of control
